Test results as given in patent US8557839B2, “Fused ring azadecalin glucocorticoid receptor modulators” (Corcept Therapeutics, Inc., priority 2004, dated 2013).

How the values were obtained:
glucocorticoid receptors [1] = target: T1, glucocorticoid receptors (Homo sapiens, UniProt P04150); test: GR functional assay using SW1353/MMTV-5 cells (dexamethasone-induced luciferase); format: cell-based; parameters: contains endogenous glucocorticoid receptors; endogenous in cells; host or cells: SW1353/MMTV-5 (human chondrosarcoma, stably carrying the pMAMneo-Luc reporter); conditions: read-out: GR Functional
T1 sequence (P04150 1-777): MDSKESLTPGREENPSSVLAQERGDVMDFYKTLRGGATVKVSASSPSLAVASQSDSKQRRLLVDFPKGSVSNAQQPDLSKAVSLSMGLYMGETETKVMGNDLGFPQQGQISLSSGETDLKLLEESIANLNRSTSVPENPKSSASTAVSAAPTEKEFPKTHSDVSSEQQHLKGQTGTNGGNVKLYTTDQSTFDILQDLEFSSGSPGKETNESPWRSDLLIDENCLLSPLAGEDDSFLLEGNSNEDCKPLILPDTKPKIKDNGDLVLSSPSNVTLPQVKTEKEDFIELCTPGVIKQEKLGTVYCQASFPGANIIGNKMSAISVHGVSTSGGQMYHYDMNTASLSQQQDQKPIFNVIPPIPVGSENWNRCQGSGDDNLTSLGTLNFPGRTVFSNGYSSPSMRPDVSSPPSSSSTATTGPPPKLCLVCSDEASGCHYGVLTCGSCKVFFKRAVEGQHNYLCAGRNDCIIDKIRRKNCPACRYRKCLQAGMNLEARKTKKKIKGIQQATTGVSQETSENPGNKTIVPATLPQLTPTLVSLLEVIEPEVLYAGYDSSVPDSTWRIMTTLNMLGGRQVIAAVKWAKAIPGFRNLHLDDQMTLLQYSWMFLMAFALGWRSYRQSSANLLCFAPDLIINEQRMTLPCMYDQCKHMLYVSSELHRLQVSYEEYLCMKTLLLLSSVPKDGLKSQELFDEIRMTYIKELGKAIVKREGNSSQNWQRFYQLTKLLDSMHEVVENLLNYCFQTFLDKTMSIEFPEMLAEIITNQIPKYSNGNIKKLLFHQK
Protocol: SW1353/MMTV-5 is an adherent human chondrosarcoma cell line that contains endogenous glucocorticoid receptors. It was transfected with a plasmid (pMAMneo-Luc) encoding firefly luciferase located behind a glucocorticoid-responsive element (GRE) derived from a viral promoter (long terminal repeat of mouse mammary tumor virus). A stable cell line SW1353/MMTV-5 was selected with geneticin, which was required to maintain this plasmid.
SW1353/MMTV-5 cells were distributed in 96-well plates and incubated in medium (without geneticin) for 24 hrs (in the absence of CO2).

glucocorticoid receptors [2] = target: T1, glucocorticoid receptors; test: Glucocorticoid receptor binding displacement assay with 3H-dexamethasone; parameters: This GR was a full-length steroid hormone receptor; host or cells: recombinant baculovirus-infected insect cells; conditions: Ki from IC50 by Cheng-Prusoff; 2.5 nM 3H-dexamethasone; read-out: GR Binding
Protocol: The source of the receptor was recombinant baculovirus-infected insect cells. This GR was a full-length steroid hormone receptor likely to be associated with heat-shock and other endogenous proteins.
For the Primary Screen, test compounds were tested at 1 μM in duplicate. These compounds were diluted from 10 mM stock in 100% DMSO. After dilution to 100 μM, 5 μl were added to 245 μl assay buffer to obtained 2 μM compound and 2% DMSO.
For the IC50 determinations, test compounds were tested at 6 concentrations in duplicate (concentration range depends on % inhibition binding that was obtained in the Primary Screen). Test compounds were diluted from 10 mM stock in 100% DMSO. The tested solutions were prepared at 2× final assay concentration in 2% DMSO/assay buffer.
All reagents and the assay plate were kept on ice during the addition of reagents. […] After the additions, the incubation mixture was mixed and incubated for 2.5 hrs at 4° C.
After 2.5 hrs incubation, unbound counts were removed with dextran coated charcoal (DCC) as follows: 25 μl of DCC solution (10% DCC in assay buffer) was added to all wells and mixed (total volume 225 μl). The plate was centrifuged at 4000 rpm for 10 minutes at 4° C. 75 μl of the supernatants (i.e.⅓ of total volume) was carefully pipetted into an optiplate. 200 μl of scintillation cocktail were added (Microscint-40, Packard Bioscience. B.V.). The plate was vigorously shaken for approx. 10 minutes and counted on Topcount.
The IC50 values were converted to Ki (the inhibition constant) using the Cheng-Prusoff equation.
Reagents: Assay buffer: 10 mM potassium phosphate buffer pH 7.6 containing 5 mM DTT, 10 mM sodium molybdate, 100 μM EDTA and 0.1% BSA.

[3] = SW1353/MMTV-5 cells, antagonism of 50 nM dexamethasone, luciferase

| Compound | Ki (glucocorticoid receptors [1]) [nM] | Ki (glucocorticoid receptors [2]) [nM] | Ki (glucocorticoid receptors [1]; [3]) [nM] |
| --- | --- | --- | --- |
| CC(C)(C)c1ccc(S(=O)(=O)N2CCC3=Cc4c(cnn4Cc4cccc(O)c4)CC3(Cc3ccccc3)C2)cc1 (stereo not shown) [drawing 241] | > 100 | > 100 |  |
| COCCOC[C@]12Cc3cnn(C(C)C)c3C=C1CCN(S(=O)(=O)c1ccc(C(C)(C)C)cc1)C2 | 10 to 100 | < 10 |  |
| CCC(O)[C@]12Cc3cnn(-c4ccc(F)cc4)c3C=C1CCN(S(=O)(=O)c1ccc(C(C)(C)C)cc1)C2 (stereo partly shown) | 10 to 100 | < 10 |  |
| CC(C)(C)c1ccc(S(=O)(=O)N2CCC3=Cc4c(cnn4-c4ccc(F)cc4)C[C@]3(COCCN3CCCCC3)C2)cc1 | 10 to 100 | < 10 |  |
| Fc1ccc(-n2ncc3c2C=C2CCN(Cc4c[nH]cn4)CC2(Cc2ccccc2)C3)cc1 (stereo not shown) | > 100 | > 100 |  |
| CC(C)(C)c1ccc(S(=O)(=O)N2CCC3=Cc4c(cnn4-c4ccc(F)cc4)C[C@]3(CNCCO)C2)cc1 | 10 to 100 | < 10 |  |
| CC(C)(C)c1ccc(S(=O)(=O)N2CCC3=Cc4[nH]ncc4CC3(Cc3ccccc3)C2)cc1 (stereo not shown) [drawing 245] | 10 to 100 | < 10 |  |
| COCCOC[C@]12Cc3cnn(-c4ccc(F)cc4)c3C[C@@H]1CCN(S(=O)(=O)c1ccc(C(C)(C)C)cc1)C2 | < 10 | < 10 |  |
| CC(C)(C)c1ccc(S(=O)(=O)N2CCC3=Cc4c(cnn4-c4ccc(F)cc4)CC3(Cc3ccccc3)C2)cc1 (stereo not shown) [drawing 233] | 10 to 100 | < 10 |  |
| O=S(=O)(c1ccc(N2CCOCC2)cc1)N1CCC2=Cc3[nH]ncc3CC2(Cc2ccccc2)C1 (stereo not shown) [drawing 230] |  | < 10 | > 100 |
| CC(C)(C)c1ccc(S(=O)(=O)N2CCC3=Cc4c(cnn4-c4ccc(F)cc4)C[C@]3(C(O)c3ccccc3)C2)cc1 (stereo partly shown) | > 100 | 10 to 100 |  |
| C[C@]12Cc3cnn(-c4ccc(F)cc4)c3C=C1CCN(S(=O)(=O)c1ccc(N)cc1)C2 | > 100 | 10 to 100 |  |
| Cn1cnc(S(=O)(=O)N2CCC3=Cc4c(cnn4-c4ccc(F)cc4)CC3(Cc3ccc(F)cc3)C2)c1 (stereo not shown) | > 100 | < 10 |  |
| CN(C)C(=O)CN1CCC2=Cc3c(cnn3-c3ccc(F)cc3)CC2(Cc2ccccc2)C1 (stereo not shown) | > 100 | > 100 |  |
| Fc1ccc(-n2ncc3c2C=C2CCN(Cc4ccccc4)CC2(Cc2ccccc2)C3)cc1 (stereo not shown) [drawing 258] |  | 10 to 100 | > 100 |
| CN(C)C[C@]12Cc3cnn(-c4ccc(F)cc4)c3C=C1CCN(S(=O)(=O)c1ccc(F)cc1)C2 | 10 to 100 | < 10 |  |
| CC(C)(C)c1ccc(S(=O)(=O)N2CCC3=Cc4c(cnn4-c4ccc(F)cc4)C[C@]3(C(=O)N3CCOCC3)C2)cc1 | > 100 | 10 to 100 |  |
| COc1ccc(S(=O)(=O)N2CCC3=Cc4c(cnn4-c4ccc(F)cc4)C[C@]3(CN3CCCCC3)C2)cc1 | 10 to 100 | 10 to 100 |  |
| CCCCS(=O)(=O)N1CCC2=Cc3c(cnn3-c3ccc(F)cc3)C[C@]2(COCCOC)C1 | 10 to 100 | < 10 |  |
| Cn1cc2c(n1)C=C1CCN(S(=O)(=O)c3ccc(C(C)(C)C)cc3)CC1(Cc1ccccc1)C2 (stereo not shown) [drawing 248] |  | < 10 | > 100 |
| Fc1ccc(-n2ncc3c2C=C2CCN(Cc4ccccc4)CC2(Cc2ccccc2)C3)cc1 (stereo not shown) [drawing 242] | > 100 | 10 to 100 |  |
| CCCCn1ncc2c1C=C1CCN(S(=O)(=O)c3ccc(C(C)(C)C)cc3)C[C@@]1(CN(C)C)C2 | > 100 | 10 to 100 |  |
| Cc1ccccc1S(=O)(=O)N1CCC2=Cc3c(cnn3-c3ccc(F)cc3)C[C@]2(CN2CCOCC2)C1 | 10 to 100 | < 10 |  |
